Patent US10711008B2, “Indoline analogs and uses thereof” (Oncternal Therapeutics, Inc., priority 2016, dated 2020)

Assays:
Type in all cases: cell-based, human
Details in all cases: 3 days with compound at 0.02 to 5 μM, CCK-8, A450, 50% inhibition of cell viability
[1] = test system: TC71 (Type 1, 7/6) cells (Ewing Sarcoma cell line); assay: Cell growth inhibition, modified tetrazolium salt assay (CCK-8 kit), TC71 cells
Procedure: (§1) A modified tetrazolium salt assay using the CCK-8 kit (Sigma-Aldrich; St Louis, Mo.) was used to measure the inhibition of human tumor cell growth. Tumor cells (5000-7500 per well) were added to 96 well plates and allowed to attach for 4-5 hours. Compounds were serially diluted and added in triplicate at a concentration of 0.02 to 5 μM. DMSO was included as a vehicle control. Cells were incubated in the presence of compound for 3 days. After incubation CCK-8 reagent was added to each well and incubated for 2-4 hours. Viable cells were quantitated spectrophotometrically at a wavelength of 450 nm. Percent viability of each sample was calculated from the A450 values as follows: % viability=(A450 nm sample/A450 nm DMSO-treated cells×100). The IC50 was defined as the concentration that gave rise to 50% inhibition of cell viability. IC50 activities of particular compounds were determined using SKES (type 2, 7/5) cells (Ewing Sarcoma cell line), TC71 (Type 1, 7/6) cells (Ewing Sarcoma cell line), and A4573 (Type 3, 10/6) cells (Ewing Sarcoma cell line). […] TK-216 is a YK-4-279 clinical derivative that is in phase 1 for patients with relapsed or refractory Ewing sarcoma. Preclinical testing has been conducted for TK-216 in lymphoma models. Test results for the analogs were compared to those for TK-216 and YK-4-279.

[2] = test system: SKES (type 2, 7/5) cells (Ewing Sarcoma cell line); assay: Cell growth inhibition, modified tetrazolium salt assay (CCK-8 kit), SKES cells
Procedure: as §1

[3] = test system: A4573 (Type 3, 10/6) cells (Ewing Sarcoma cell line); assay: Cell growth inhibition, modified tetrazolium salt assay (CCK-8 kit), A4573 cells
Procedure: as §1

Structure (SMILES)	IC50 ([1]; Homo sapiens, TC-71, 72 h) [µM]	IC50 ([2]; Homo sapiens, 72 h) [µM]	IC50 ([3]; Homo sapiens, 72 h) [µM]	IC50 [1] [µM]	IC50 [2] [µM]	IC50 [3] [µM]
CN(C)c1ccc(-c2cc3c(nn2)[nH]c2c(Cl)ccc(Cl)c23)cc1 [TK Analog 14]	> 5	> 5	> 5			
O=C(CC1(O)C(=O)Nc2c(Cl)ccc(Cl)c21)c1ccc2occc2c1 (stereo not drawn) [TK Analog 9]	> 5	< 5	> 5			
COc1ccc2nn(CC3(O)C(=O)Nc4c(Cl)ccc(Cl)c43)cc2c1 (stereo not drawn) [TK Analog 16A]	> 5	> 5	> 5			
O=C(CC1(O)C(=O)Nc2c(Cl)ccc(Cl)c21)c1ccc(OC(F)F)cc1 (stereo not drawn) [TK Analog 4]	> 5	> 5	> 5			
COc1ccc(C(=O)CC2(F)C(=O)Nc3c(Cl)ccc(Cl)c32)cc1 (stereo not drawn) [TK Analog 7]	< 5	< 5	< 5			
O=C(CC1(O)C(=O)Nc2c(Cl)ccc(Cl)c21)c1ccc(C2CC2)nc1 (stereo not drawn) [TK Analog 20]	> 5	> 5	> 5			
COc1ccc(C(=O)CC2(O)C(=O)Nc3c(Cl)ccc(Cl)c32)c(F)c1 (stereo not drawn) [TK Analog 15A]	< 5	< 5	< 5			
O=C(CC1(O)C(=O)Nc2c(Cl)ccc(Cl)c21)c1ccc(C2(F)CC2)cc1 (stereo not drawn) [TK Analog 2]	< 5	< 5	< 5			
O=C(CC1(O)C(=O)Nc2c(Cl)ccc(Cl)c21)c1ccc2ccccc2c1 (stereo not drawn) [TK Analog 19]	< 5	< 5	< 5			
COc1ccc2c(CC3(O)C(=O)Nc4c(Cl)ccc(Cl)c43)noc2c1 (stereo not drawn) [TK Analog 17]	> 5	> 5	> 5			
O=C(CC1(O)C(=O)Nc2c(Cl)ccc(Cl)c21)c1csc(C2CC2)c1 (stereo not drawn) [TK Analog 24]	> 5	> 5	> 5			
NC1(c2ccc(C(=O)CC3(O)C(=O)Nc4c(Cl)ccc(Cl)c43)cc2)CC1 (stereo not drawn) [TK Analog 3]	> 5	< 5	> 5			
COc1ccc2c(cnn2CC2(O)C(=O)Nc3c(Cl)ccc(Cl)c32)c1 (stereo not drawn) [TK Analog 16]	> 5	< 5	> 5			
O=C(CC1(O)C(=O)Nc2c(Cl)ccc(Cl)c21)c1ccc2sccc2c1 (stereo not drawn) [TK Analog 10]	< 5	< 5	< 5			
O=C(CC1(O)C(=O)Nc2c(Cl)ccc(Cl)c21)c1ccc(C2CC2)cn1 (stereo not drawn) [TK Analog 21]	> 5	> 5	> 5			
C#Cc1ccc(C(=O)CC2(O)C(=O)Nc3c(Cl)ccc(Cl)c32)cc1 (stereo not drawn) [TK Analog 5]	> 5	> 5	> 5			
COc1ccc(C(=O)CC2(O)C(=O)Nc3c(Cl)ccc(Cl)c32)cc1 (stereo not drawn) [YK-4-279, 4,7-dichloro-3-hydroxy-3-(2-(4-methoxyphenyl)-2-oxoethyl)indolin-2-one, reference compound]	< 5	< 5	< 5			
CNC(=O)Oc1ccc(C(=O)CC2(O)C(=O)Nc3c(Cl)ccc(Cl)c32)cc1 (stereo not drawn) [TK Analog 13]	> 5	> 5	> 5			
O=C(CC1(O)C(=O)Nc2c(Cl)ccc(Cl)c21)c1ccc(C2CC2)s1 (stereo not drawn) [TK Analog 22]	> 5	< 5	> 5			
O=C(CC1(O)C(=O)Nc2c(Cl)ccc(Cl)c21)c1ccc(C2CC2)cc1 (stereo not drawn) [TK-216-2, reference compound]				< 5	< 5	< 5
COc1ccc(C(=O)CC2(N)C(=O)Nc3c(Cl)ccc(Cl)c32)cc1 (stereo not drawn) [TK Analog 8]	> 5	< 5	> 5			
COc1ccc(C(=O)CC2C(=O)Nc3c(Cl)ccc(Cl)c32)cc1 (stereo not drawn) [TK Analog 6]	< 5	< 5	< 5			
O=C(CC1(O)C(=O)Nc2c(Cl)ccc(Cl)c21)c1cc(C2CC2)cs1 (stereo not drawn) [TK Analog 23]	> 5	> 5	> 5			
COc1ccc2c(CC3(O)C(=O)Nc4c(Cl)ccc(Cl)c43)nsc2c1 (stereo not drawn) [TK Analog 18]	> 5	< 5	> 5			
O=C(CC1(O)C(=O)Nc2c(Cl)ccc(Cl)c21)c1ccc2[nH]ccc2c1 (stereo not drawn) [TK Analog 11]	< 5	< 5	< 5			
